Test results: PubChem BioAssay AID312 (DTP/NCI, 2004)
Where “and” joins values, the source holds several entries; their conditions need not be identical. Equal values may be shown once. Inconclusive results and toxic doses are left out.

Tested on: BDF1 mice, C1498 leukemia ip, median survival T/C
Experiment: NCI In Vivo Anticancer Drug Screen. Data for tumor model C1498 Myeloid Leukemia (intraperitoneal) in B6D2F1 (BDF1) mice
Details: endpoint: median survival time, higher = longer survival
Description: The antitumor activity of compounds was measured in mice bearing transplantable tumors. Survival or tumor size were measured and the results are expressed as the measurement made in the treated group (T) divided by the measurement made in the vehicle treated control group (C). The tumor model used in this assay is C1498 Myeloid Leukemia (intraperitoneal) in B6D2F1 (BDF1) mice

[1] = dose: 30.0 mg/kg/injection, schedule: Q01DX010 (ip), vehicle: saline
[2] = dose: 60.0 mg/kg/injection, schedule: Q01DX010 (ip), vehicle: saline
[3] = dose: 3.13 mg/kg/injection, schedule: Q01DX010 (ip), vehicle: saline
[4] = dose: 6.25 mg/kg/injection, schedule: Q01DX010 (ip), vehicle: saline
[5] = dose: 25.0 mg/kg/injection, schedule: Q01DX010 (ip), vehicle: saline
[6] = dose: 50.0 mg/kg/injection, schedule: Q01DX010 (ip), vehicle: saline
[7] = dose: 100.0 mg/kg/injection, schedule: Q01DX010 (ip), vehicle: saline
[8] = dose: 12.5 mg/kg/injection, schedule: Q01DX010 (ip), vehicle: saline
[9] = dose: 5.0 mg/kg/injection, schedule: Q01DX010 (ip), vehicle: saline
[10] = dose: 10.0 mg/kg/injection, schedule: Q01DX010 (ip), vehicle: saline
[11] = dose: 1.25 mg/kg/injection, schedule: Q01DX010 (ip), vehicle: saline
[12] = dose: 2.5 mg/kg/injection, schedule: Q01DX010 (ip), vehicle: saline
[13] = dose: 20.0 mg/kg/injection, schedule: Q01DX010 (ip), vehicle: saline

In the case of `N#CCSc1ncnc2nc[nH]c12`, the T/C [1] is reported as 105 % of control and the T/C [2] is reported as 110 % of control.

For `O=C(O)CCCc1ccc(N(CCCl)CCCl)cc1`, the T/C [3] was 110 % of control and the T/C [4] was 120 % of control.

For `CC(=O)Nc1ccc2nc3ccc(NC(C)=O)cc3[n+](-c3ccccc3)c2c1`, the T/C [5] was 107 % of control, the T/C [6] was 96 % of control and the T/C [7] was 88 % of control. For the same compound, the T/C (dose: 200.0 mg/kg/injection, schedule: Q01DX010 (ip), vehicle: saline) was 88 % of control.

With `COC(=O)C[C@](O)(CCCC(C)(C)O)C(=O)O[C@@H]1C(OC)=C[C@]23CCCN2CCc2cc4c(cc2[C@H]13)OCO4` the T/C (dose: 1.5 mg/kg/injection, schedule: Q01DX009 (ip), vehicle: acid diluted with saline) was 96 % of control and the T/C (dose: 2.0 mg/kg/injection, schedule: Q01DX009 (ip), vehicle: acid diluted with saline) was 91 % of control.

For `CN(C)c1ccc(Nc2c3ccccc3nc3ccccc23)cc1`, the T/C (dose: 36.0 mg/kg/injection, schedule: Q01DX010 (ip), vehicle: saline) was 118 % of control and the T/C (dose: 120.0 mg/kg/injection, schedule: Q01DX010 (ip), vehicle: saline) was 86 % of control.

In the case of `CCn1cnc2c(=S)nc[nH]c21`, the T/C (dose: 15.6 mg/kg/injection, schedule: Q01DX010 (ip), vehicle: saline) is reported as 105 % of control, the T/C (dose: 31.3 mg/kg/injection, schedule: Q01DX010 (ip), vehicle: saline) is reported as 100 % of control and the T/C (dose: 62.5 mg/kg/injection, schedule: Q01DX010 (ip), vehicle: saline) is reported as 105 % of control. For the same compound, the T/C (dose: 125.0 mg/kg/injection, schedule: Q01DX010 (ip), vehicle: saline) was 105 % of control.

For `C[C@H]1C(=O)O[C@@H]2CCN3CC=C(COC(=O)[C@](C)(O)[C@@]1(C)O)[C@H]23`, the T/C [3] was 100 % of control and 103 % of control, the T/C [4] was 100 % of control and the T/C [8] was 95 % of control and 107 % of control. For the same compound, the T/C [5] was 95 % of control and 96 % of control.

For `NC(Cc1ccc(N(CCCl)CCCl)cc1)C(=O)O` (centres undefined), the T/C [9] was 173 % of control and the T/C [10] was 88 % of control.

In the case of `Nc1nc(=S)c2[nH]cnc2[nH]1`, the T/C (dose: 1.25 mg/kg/injection, schedule: Q01DX010 (ip), vehicle: other) is reported as 104 % of control, the T/C (dose: 2.5 mg/kg/injection, schedule: Q01DX010 (ip), vehicle: other) is reported as 123 % of control and the T/C (dose: 5.0 mg/kg/injection, schedule: Q01DX010 (ip), vehicle: other) is reported as 104 % of control. The T/C (dose: 10.0 mg/kg/injection, schedule: Q01DX010 (ip), vehicle: other) was 109 % of control, the T/C (dose: 27.0 mg/kg/injection, schedule: Q01DX001 (ip), vehicle: alkali diluted with saline) was 97 % of control and the T/C (dose: 40.0 mg/kg/injection, schedule: Q01DX001 (ip), vehicle: alkali diluted with saline) was 101 % of control. For the same compound, the T/C (dose: 60.0 mg/kg/injection, schedule: Q01DX001 (ip), vehicle: alkali diluted with saline) was 112 % of control and the T/C (dose: 90.0 mg/kg/injection, schedule: Q01DX001 (ip), vehicle: alkali diluted with saline) was 150 % of control.

`Clc1ncnc2nc[nH]c12` was tested, and the T/C (dose: 7.5 mg/kg/injection, schedule: Q01DX010 (ip), vehicle: saline) was 95 % of control and 100 % of control, the T/C (dose: 15.0 mg/kg/injection, schedule: Q01DX010 (ip), vehicle: saline) was 95 % of control and 90 % of control and the T/C [1] was 104 % of control and 90 % of control. For the same compound, the T/C [2] was 95 % of control.

In the case of `CC[n+]1c(-c2ccccc2)c2cc(N)ccc2c2ccc(N)cc21`, the T/C [11] is reported as 110 % of control, the T/C [12] is reported as 105 % of control and 109 % of control and the T/C [9] is reported as 100 % of control and 110 % of control. The T/C [10] was 100 % of control and 110 % of control and the T/C [13] was 100 % of control.

In the case of `CS(=O)(=O)OCCCl`, the T/C (dose: 18.8 mg/kg/injection, schedule: Q01DX010 (ip), vehicle: saline) is reported as 90 % of control, the T/C (dose: 37.5 mg/kg/injection, schedule: Q01DX010 (ip), vehicle: saline) is reported as 104 % of control and the T/C (dose: 75.0 mg/kg/injection, schedule: Q01DX010 (ip), vehicle: saline) is reported as 90 % of control.

`N#[N+]c1cnc([O-])[nH]c1=O` was tested, and the T/C [11] was 100 % of control, the T/C [12] was 122 % of control and the T/C [9] was 113 % of control. The T/C [10] was 118 % of control.

For `C[C@@H]1C[C@@H]([C@H](O)CC2CC(=O)NC(=O)C2)C(=O)[C@@H](C)C1`, the T/C [9] was 104 % of control and 109 % of control, the T/C [10] was 114 % of control and 122 % of control and the T/C [13] was 113 % of control and 123 % of control. For the same compound, the T/C (dose: 40.0 mg/kg/injection, schedule: Q01DX010 (ip), vehicle: saline) was 113 % of control.

In the case of `CSc1ncnc2nc[nH]c12`, the T/C [8] is reported as 100 % of control, the T/C [5] is reported as 95 % of control and the T/C [6] is reported as 100 % of control. For the same compound, the T/C [7] was 100 % of control.
